Tests used:
[1] = test system: S. stercoralis larvae; experiment: Dye exclusion test using eosin to tell live from killed larvae; assay type: cell-based; details: for Percentage of S. stercoralis larvae stained using eosin in vitro: n~100
Method: Dye exclusion tests have been used successfully to indicate viability in parasitic platyhelminths, and similar testing can be applied to S. stercoralis larvae. Use of 0.01% v/v eosin in LNS (ELNS) in a dye exclusion test indicated death of larvae in less than 10 minutes, and 0.01-0.03% ELNS had no effect on healthy individuals. The larvae typically survive for more than 100 hours in ELNS. Accordingly, LNS is a preferred medium in which to maintain larvae harvested from multiplication in coproculture and ELNS is a preferred medium for evaluating the effects of physiologically active materials, such as candidate anthelmintic materials, on the larvae. However, the skilled practitioner will recognize that any medium in which the larvae can be maintained for a convenient period of time, and any appropriate vital staining dye, can be used in the method of the invention.
The results of a comparative test to establish the ability of a dye exclusion procedure using eosin to discriminate between live and killed larvae are presented in Table 1 below. FIG. 1 is a photomicrograph of a microscopic inspection field showing a number of larvae of S. stercoralis after exposure to an anthelmintic agent.

[2] = test system: S. stercoralis larvae; experiment: Larval tolerance to methanol (solvent); assay type: cell-based, Strongyloides stercoralis; details: aqueous solutions containing methanol; cumulative percentage mortality
Method: Active constituents of plants are typically extracted in organic solvents such as methanol. […] Studies of methanol toxicity for S. stercoralis indicate that a methanol concentration exceeding 5 μg/100 mL LNS (>50 times that detected in plant extracts using NMR analyses) is required to exert any significant effect on larval mortality.

[3] = test system: S. stercoralis larvae; experiment: Larval tolerance to emulsifiers; assay type: cell-based
Description: Triton® X-100 (octylphenoxy polyethoxyethanol) is recommended for use as an emulsifier, where necessary. A concentration of 1-4% in 0.01% ELNS had no effect on larval mobility or mortality.
Other suitable surfactants for dispersing plant extracts can be developed by routine testing according to the described procedures.

Compound: O=C1OC2(c3ccccc31)c1cc(Br)c(O)c(Br)c1Oc1c2cc(Br)c(O)c1Br [eosin]
- Time in which the dye exclusion test indicated death of larvae ([1]; 0.01% v/v eosin in LNS): less than 10 minutes
- Percentage of S. stercoralis larvae stained using eosin in vitro ([1]; heat killed larvae (60° C./30 min), eosin 0.01% (w/v), 0 min): 0%
- Percentage of S. stercoralis larvae stained using eosin in vitro ([1]; heat killed larvae (60° C./30 min), eosin 0.01% (w/v), 10 min): 100%
- Percentage of S. stercoralis larvae stained using eosin in vitro ([1]; heat killed larvae (60° C./30 min), eosin 0.03% (w/v), 0 min): 0%
- Percentage of S. stercoralis larvae stained using eosin in vitro ([1]; heat killed larvae (60° C./30 min), eosin 0.03% (w/v), 10 min): 100%
- Percentage of S. stercoralis larvae stained using eosin in vitro ([1]; living larvae, eosin 0.01% (w/v), 0 min): 0%
- Percentage of S. stercoralis larvae stained using eosin in vitro ([1]; living larvae, eosin 0.01% (w/v), 10 min): 1%
- Percentage of S. stercoralis larvae stained using eosin in vitro ([1]; living larvae, eosin 0.01% (w/v), 20 min): 1%
- Percentage of S. stercoralis larvae stained using eosin in vitro ([1]; living larvae, eosin 0.01% (w/v), 30 min): 2%
- Percentage of S. stercoralis larvae stained using eosin in vitro ([1]; living larvae, eosin 0.01% (w/v), 40 min): 2%
- Percentage of S. stercoralis larvae stained using eosin in vitro ([1]; living larvae, eosin 0.01% (w/v), 50 min): 2%
- Percentage of S. stercoralis larvae stained using eosin in vitro ([1]; living larvae, eosin 0.01% (w/v), 60 min): 2%
- Percentage of S. stercoralis larvae stained using eosin in vitro ([1]; living larvae, eosin 0.01% (w/v), column headed only "(min)", after 60): 2%
- Percentage of S. stercoralis larvae stained using eosin in vitro ([1]; living larvae, eosin 0.03% (w/v), 0 min): 0%
- Percentage of S. stercoralis larvae stained using eosin in vitro ([1]; living larvae, eosin 0.03% (w/v), 10 min): 1%
- Percentage of S. stercoralis larvae stained using eosin in vitro ([1]; living larvae, eosin 0.03% (w/v), 20 min): 1%
- Percentage of S. stercoralis larvae stained using eosin in vitro ([1]; living larvae, eosin 0.03% (w/v), 30 min): 2%
- Percentage of S. stercoralis larvae stained using eosin in vitro ([1]; living larvae, eosin 0.03% (w/v), 40 min): 2%
- Percentage of S. stercoralis larvae stained using eosin in vitro ([1]; living larvae, eosin 0.03% (w/v), 50 min): 2%
- Percentage of S. stercoralis larvae stained using eosin in vitro ([1]; living larvae, eosin 0.03% (w/v), 60 min): 2%
- Percentage of S. stercoralis larvae stained using eosin in vitro ([1]; living larvae, eosin 0.03% (w/v), column headed only "(min)", after 60): 3%

Compound: CO [methanol]
- Methanol concentration required to exert any significant effect on larval mortality [2]: exceeding 5 μg/100 mL LNS

Compound: Tween® 20
- Toxicity to S. stercoralis larvae ([3]; 0.1-0.4% in 0.1% ELNS): toxic

Compound: octylphenoxy polyethoxyethanol [Triton® X-100]
- Effect on larval mobility ([3]; 1-4% in 0.01% ELNS): no effect
- Effect on larval mortality ([3]; 1-4% in 0.01% ELNS): no effect
